# Measured values from patent US5410018A, “Bombesin-related peptides” (Oregon Regional Primate Research Center, priority 1994, dated 1995).
# Non-standard residues stand in square brackets, D forms with d. Residues, ends and D or L forms follow the SMILES beside them. No end group written: not given here. pGlu = O=C1CC[C@@H](C(=O)O)N1
# Legend:
# [1] = test system: Swiss 3T3/1R mouse embryo fibroblast cells; assay: Thymidine uptake assay in Swiss 3T3 cells; type: cell-based; settings: 24 h
# Method: Swiss 3T3/1R mouse embryo fibroblast cells were plated in 24 well tissue culture plates at a density of 2×10^4 cells in 1 ml of Dublbecco's modified eagles medium (DMEM) supplemented with 40 mM glutamine (Gln) in 10% fetal bovine serum. Cells were incubated 3 or 4 days at […] in a humidified atmosphere at 95% air/5% CO2 before replacing the growth medium with DMEM/Gln and 250 μg/ml gentamicin. On the following day, 1 μCi thymidine was added to all wells, and activity was addressed by addition of test peptides alone or in the presence on 3 nM bombesin, respectively. After 24 h, the cells were rinsed with icecold isotonic saline and treated with ice-cold 5% trichloroacetic acid for 30 min. Cells were then rinsed with 95% ethanol and incubated with 0.1 N NaOH overnight at room temperature. One ml aliquots of neutralized samples were counted in a Packard Tri-Carb liquid scintillation analyzer. Test sample activity was measured in 2 independent experiments performed in quadruplicate.
# This experiment was performed using 5 test samples: (1) bombesin (3 nM); (2) BIM-26336; (3) BIM-26337; (4) bombesin (3 nM) and BIM-26336; and (5) bombesin (3 nM)+BIM-26337. The results of these experiments are depicted on FIG. 6, wherein the x-axis depicts concentration of the respective SAP bombesin and the y-axis depicts disintegration per minute.
# human GRP receptor = molecular target: T1, human GRP receptor (Homo sapiens, UniProt P30550); assay: Calcium uptake functional assay in xenopus oocytes expressing the human GRP receptor (aequorin luminometry); type: cell-based; settings: xenopus oocytes coinjected with GRP receptor RNA and aequorin
# T1 construct: expressed in transfected cells; host or cells: Xenopus oocytes injected with GRP receptor RNA and aequorin
# T1 sequence (P30550 whole entry): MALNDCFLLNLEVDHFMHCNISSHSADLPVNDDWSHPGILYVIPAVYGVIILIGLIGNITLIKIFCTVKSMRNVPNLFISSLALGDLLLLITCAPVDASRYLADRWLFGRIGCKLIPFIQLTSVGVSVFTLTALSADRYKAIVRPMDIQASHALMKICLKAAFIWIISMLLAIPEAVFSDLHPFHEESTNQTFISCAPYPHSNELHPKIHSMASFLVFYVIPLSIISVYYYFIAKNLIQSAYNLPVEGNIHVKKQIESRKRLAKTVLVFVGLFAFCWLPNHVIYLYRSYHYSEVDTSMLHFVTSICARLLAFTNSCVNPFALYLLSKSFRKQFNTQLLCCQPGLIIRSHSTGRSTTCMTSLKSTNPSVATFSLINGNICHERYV
# Method: (§1) The ability of BIM-26336 and BIM-26337 to activate both the GRP and NMB receptors were analyzed using a calcium uptake functional assay.
# Xenopus oocytes were coinjected with both GRP receptor RNA and calcium photoprotein aequorin. The ability of SAP bombesins to induce change in intracellular calcium levels within the cells can be measured luminometrically.
# (§2) The ability of bombesin, NMB, SAP bombesin-14, and SAP bombesin-10 to agonize the receptor was tested.
# NMB receptor = NMB receptor (Rattus norvegicus, UniProt P24053); assay: biochemical
# Chain of NMB receptor (P24053 whole entry): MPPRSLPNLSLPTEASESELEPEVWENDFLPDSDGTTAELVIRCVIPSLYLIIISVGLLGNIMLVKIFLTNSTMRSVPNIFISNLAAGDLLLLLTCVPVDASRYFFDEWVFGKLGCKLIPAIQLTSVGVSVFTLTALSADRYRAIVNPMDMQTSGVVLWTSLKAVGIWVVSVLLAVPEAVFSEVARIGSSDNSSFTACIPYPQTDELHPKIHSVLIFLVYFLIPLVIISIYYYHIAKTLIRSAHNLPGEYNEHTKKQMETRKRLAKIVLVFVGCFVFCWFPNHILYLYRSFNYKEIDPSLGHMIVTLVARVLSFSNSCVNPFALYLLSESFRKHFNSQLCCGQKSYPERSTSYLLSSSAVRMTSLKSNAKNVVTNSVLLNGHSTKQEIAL
# Method: Membranes of the NMB receptor used in the binding assay were obtained by homogenizing rat olfactory bulb tissue (Polytron, setting 6, 15 sec) in ice-cold 50 mM Tris-HC1 (Buffer A) and centrifuging twice as 39,000 x g (10 min), with an intermediate resuspension in fresh buffer. The final pellets were resuspended in the 50 mM Tris-HCl, containing 0.1 mg/ml bacitracin, and 0.1% BSA (Buffer B), and held on ice for the receptor binding assay. For the assay, aliquots (0.4 ml) were incubated with 0.05 ml [^125 I] NMB (-2200 Ci/mmol, New England Nuclear) and Buffer B, with and without 0.05 ml of unlabeled competing peptides. The experiment was performed with BIM-26336, […], GRP, and NMB as competing peptides.
# After a 30 min incubation (4° C.), the bound [^125 I]NMB was separated from the free by rapid filtration through GF/B filters which had been previously soaked in 0.3% polyethyleneimine. The filters were then washed three times with 5 ml aliquots of ice-cold Buffer A. Specific binding was defined as the total [125I] NMB bound minus that bound in the presence of 1 μM unlabeled NMB.
# human NMB receptor = molecular target: T2, human NMB receptor (Homo sapiens, UniProt P28336); assay: Calcium uptake functional assay in xenopus oocytes expressing the human NMB receptor (aequorin luminometry); type: cell-based; settings: xenopus oocytes coinjected with NMB receptor RNA and aequorin
# T2 construct: expressed in transfected cells; host or cells: Xenopus oocytes injected with NMB receptor RNA and aequorin
# T2 sequence (P28336 whole entry): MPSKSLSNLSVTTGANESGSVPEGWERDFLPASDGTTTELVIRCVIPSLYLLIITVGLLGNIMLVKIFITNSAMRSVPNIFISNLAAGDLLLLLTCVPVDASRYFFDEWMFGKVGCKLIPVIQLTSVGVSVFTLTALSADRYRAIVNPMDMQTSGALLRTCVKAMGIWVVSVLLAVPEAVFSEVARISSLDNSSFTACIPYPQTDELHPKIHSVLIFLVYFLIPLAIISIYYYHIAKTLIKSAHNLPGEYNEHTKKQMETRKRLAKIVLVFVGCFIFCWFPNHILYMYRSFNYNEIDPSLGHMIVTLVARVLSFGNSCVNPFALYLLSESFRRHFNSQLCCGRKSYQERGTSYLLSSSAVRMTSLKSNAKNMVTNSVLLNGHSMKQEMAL
# Method: as §1
# Xenopus oocytes, a frog egg naturally deprived of any receptors, were coinjected with both NMB receptor RNA and calcium photoprotein aequorin. The ability of SAP bombesins to induce change in intracellular calcium levels within the cells were measured luminometrically. See Spindel, et al., Recent Progress in Hormone Research 48:365 (1993); Corjay, et al., J. Biol. Chem. 266:18771 (1991); and Giladi et al., BioTechniques 10:744 (1991), all of which are hereby incorporated by reference.
# as §2
# GRP receptor = GRP receptor (Rattus norvegicus, UniProt P52500); assay: biochemical
# Chain of GRP receptor (P52500 whole entry): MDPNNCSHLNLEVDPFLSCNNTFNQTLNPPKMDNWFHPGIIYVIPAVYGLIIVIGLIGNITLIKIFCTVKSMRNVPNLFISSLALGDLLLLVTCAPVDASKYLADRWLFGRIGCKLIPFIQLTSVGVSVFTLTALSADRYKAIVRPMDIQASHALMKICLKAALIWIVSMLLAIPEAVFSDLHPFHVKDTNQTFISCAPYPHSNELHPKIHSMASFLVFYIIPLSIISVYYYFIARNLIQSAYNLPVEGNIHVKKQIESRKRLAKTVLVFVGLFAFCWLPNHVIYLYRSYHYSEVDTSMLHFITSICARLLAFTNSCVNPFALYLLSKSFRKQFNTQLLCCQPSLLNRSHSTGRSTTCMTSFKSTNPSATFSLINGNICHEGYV
# Method: Membranes of the GRP receptor used in the binding assay were obtained by homogenizing cultured AR42J cells (Polytron, setting 6, 15 sec) in ice-cold 50 mM Tris-HC1 (Buffer A) and centrifuging twice as 39,000 x g (10 min), with an intermediate resuspension in fresh buffer. The final pellets were resuspended in the 50 mM Tris-HCl, containing 0.1 mg/ml bacitracin, and 0.1% BSA (Buffer B), and held on ice for the receptor binding assay. […] The experiment was performed with BIM-26336, […], GRP, and NMB as competing peptides.
Molecule,"thymidine uptake, peptide with bombesin ([1]; in the presence of 3 nM bombesin)","thymidine uptake, peptide alone ([1]; test peptide alone)",potency at the GRP receptor (intracellular calcium) (human GRP receptor),Ki (NMB receptor),"potency at the NMB receptor (intracellular calcium, relative to NMB) (human NMB receptor)",Ki (GRP receptor),binding selectivity between GRP and NMB receptors (GRP receptor; comparison of Ki at NMB and GRP receptors)
"CSCC[C@H](NC(=O)[C@H](Cc1ccccc1)NC(=O)[C@H](Cc1c[nH]cn1)NC(=O)CNC(=O)[C@H](CCCNC(=N)N)NC(=O)[C@H](C)NC(=O)[C@H](Cc1c[nH]c2ccccc12)NC(=O)[C@H](CCC(N)=O)NC(=O)[C@H](CC(N)=O)NC(=O)CNC(=O)[C@H](CC(C)C)NC(=O)[C@H](CO)NC(=O)[C@H](CCC(N)=O)NC(=O)[C@@H]1CCC(=O)N1)C(N)=O [BIM-26337, H-pGlu-Gln-Ser-Leu-Gly-Asn-Gln-Trp-Ala-Arg-Gly-His-Phe-Met-NH2] ([pGlu]QSLGNQWARGHFM-NH2)",substantially enhanced,induce thymidine uptake,significantly greater potency than SAP bombesin-10,610 nM,approximately two log units less than that of NMB,6.4 nM,more selective binding of GRP than NMB receptors
"GNQWARGHFM-NH2 [BIM-26336, Gly-Asn-Gln-Trp-Ala-Arg-Gly-His-Phe-Met-NH2]",–,–,–,15.1 nM,–,6.6 nM,–
